According to patent US12391692B2, “Spiro ring-containing quinazoline compound” (WIGEN BIOMEDICINE TECHNOLOGY (SHANGHAI) CO., LTD., priority 2020, dated 2025):

Experiments:
H358 cells = test: Antiproliferative activity against H358 cells (Cell Titer Glow, ultra-low attachment plate); format: cell-based; conditions: Homo sapiens, NCI-H358, 72 h, three days after addition of compound
Experimental: 2500 H358 cells were seeded in a 96-well ultra-low attachment plate (corning, 7007). After one day of growth, a serially diluted compound (a maximum concentration of 5 μM, 5-fold dilution, a total of five doses) was added. Three days after the addition of the compound, Cell Titer Glow (Promega, G9681) was added to evaluate pellet growth, and the IC50 value was calculated.

[1] = test system: human pancreatic cancer Mia PaCa-2 xenograft tumors; test: Antitumor activity in mice, Mia PaCa-2 xenograft; format: in vivo; conditions: Mia PaCa-2 xenograft in nude mice; for Anti-tumor effect (regression): 10 mg/kg, qd*21, intragastric; for in vivo activity compared with control drug B: 10 mg/kg/day, 21 days
Experimental: Human pancreatic cancer Mia PaCa-2 cells were cultured conventionally in 1640 medium containing 10% fetal bovine serum in a 37° C./5% CO2 incubator. After being subcultured, the cells were collected when they reached the desired amount. 1×10^7 Mia PaCa-2 cells were injected into the left dorsal side of each nude mouse, and the animals were randomly grouped for administration after tumors grew to 150 mm^3. The groups were as follows: 1) solvent control group, 8 mice; 2) compound 6 group, compound 14 group, compound 28 group, compound 44 group, compound 60 group, compound 103 group and control drug B (Example 35 in WO2018/143315), 8 mice in each group. The mice in the solvent control group was intragastrically administered with 0.5% CMC-Na once a day; and the mice in the compound groups were intragastrically administered with 0.5% CMC-Na suspension once a day. On Tuesday and Thursday each week, tumor volumes and body weight of the mice were measured, and the nude mice were sacrificed on day 21 during the treatment period.

pERK level in H358 cells = test: pERK and ERK protein content assay in H358 cells (ELISA); format: cell-based; conditions: Homo sapiens, NCI-H358, pERK/ERK ratio vs DMSO group, compound 1 μM, 24 h, read-out: Inhibition rate (%)
How it was run: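 H358 cells grown one day, then treated 24 h with compound at 1 μM. pERK and ERK in lysates measured by ELISA; pERK/ERK ratio expressed as percent inhibition versus DMSO.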

SMILES | IC50 (H358 cells) [nM] | Anti-tumor effect (regression) [1] [% regression] | in vivo activity compared with control drug B [1] | inhibition at 1 µM (pERK level in H358 cells) [%]
C=CC(=O)N1CC2(CCN(c3nc(N4CC(CN5CCC5)C4)nc4c(OCC(F)(F)F)c(-c5c(C)ccc6[nH]ncc56)c(C5CC5)cc34)CC2)C1 [Compound 6] | < 300 | 35 | stronger in vivo activity than the control drug B | > 90
C=CC(=O)N1CC2(CCN(c3nc(N4CC(N5CC6(CC6)C5)C4)nc4c(OCC(F)(F)F)c(-c5c(C)ccc6[nH]ncc56)c(C5CC5)cc34)CC2)C1 [Compound 28] | < 300 | 42 | stronger in vivo activity than the control drug B | > 90
C=CC(=O)N1CC2(CCN(c3nc(N4CC(C)(N5CCC5)C4)nc4c(OCC(F)(F)F)c(-c5c(C)ccc6[nH]ncc56)c(C5CC5)cc34)CC2)C1 [Compound 60] | < 300 | 30 | stronger in vivo activity than the control drug B | > 90
C=CC(=O)N1CC2(CCN(c3nc(N4CC(N5CC6(CC6)C5)C4)nc4c(OCC(F)(F)F)c(-c5c(F)ccc6[nH]ncc56)c(C5CC5)cc34)CC2)C1 [Compound 103] | < 300 | 39 | stronger in vivo activity than the control drug B | > 90
C=CC(=O)N1CC2(CCN(c3nc(N4CC(N5CC(O)C5)C4)nc4c(OCC(F)(F)F)c(-c5c(C)ccc6[nH]ncc56)c(C5CC5)cc34)CC2)C1 [Compound 44] | < 300 | 23 |  | > 90
